Measurements as given in ChEMBL document CHEMBL4414672, “Synthesis of certain benzothieno[3,2-d]pyrimidine derivatives as a selective SIRT2 inhibitors” (Eur J Med Chem, 2020).

How the values were obtained:
Format in all cases: functional
SF-539 = assay: Growth inhibition of human SF539 cells at 10^-5 M incubated for 48 hrs by sulforhodamine B assay; conditions: SF-539, 48 h, read-out: GI
Malme-3M = assay: Growth inhibition of human MALME-3M cells at 10^-5 M incubated for 48 hrs by sulforhodamine B assay; conditions: read-out: GI
OVCAR-4 = assay: Growth inhibition of human OVCAR4 cells at 10^-5 M incubated for 48 hrs by sulforhodamine B assay; conditions: OVCAR-4, 48 h, read-out: GI
K562 = assay: Growth inhibition of human K562 cells at 10^-5 M incubated for 48 hrs by sulforhodamine B assay; conditions: K562, 48 h, read-out: GI
OVCAR-3 = assay: Growth inhibition of human OVCAR3 cells at 10^-5 M incubated for 48 hrs by sulforhodamine B assay; conditions: OVCAR-3, 48 h, read-out: GI
SW-620 = assay: Growth inhibition of human SW620 cells at 10^-5 M incubated for 48 hrs by sulforhodamine B assay; conditions: SW-620, 48 h, read-out: GI
SF-295 = assay: Growth inhibition of human SF295 cells at 10^-5 M incubated for 48 hrs by sulforhodamine B assay; conditions: SF-295, 48 h, read-out: GI
OVCAR-8 = assay: Growth inhibition of human OVCAR8 cells at 10^-5 M incubated for 48 hrs by sulforhodamine B assay; conditions: OVCAR-8, 48 h, read-out: GI
SNB-19 = assay: Growth inhibition of human SNB19 cells at 10^-5 M incubated for 48 hrs by sulforhodamine B assay; conditions: SNB-19, 48 h, read-out: GI
CCRF-CEM = assay: Growth inhibition of human CCRF-CEM cells at 10^-5 M incubated for 48 hrs by sulforhodamine B assay; conditions: read-out: GI
NCI-H460 = assay: Growth inhibition of human NCI-H460 cells at 10^-5 M incubated for 48 hrs by sulforhodamine B assay; conditions: NCI-H460, 48 h, read-out: GI
A498 = assay: Growth inhibition of human A498 cells at 10^-5 M incubated for 48 hrs by sulforhodamine B assay; conditions: A498, 48 h, read-out: GI
ACHN = assay: Growth inhibition of human ACHN cells at 10^-5 M incubated for 48 hrs by sulforhodamine B assay; conditions: read-out: GI
NCI-H23 = assay: Growth inhibition of human NCI-H23 cells at 10^-5 M incubated for 48 hrs by sulforhodamine B assay; conditions: NCI-H23, 48 h, read-out: GI
PC-3 = assay: Growth inhibition of human PC3 cells at 10^-5 M incubated for 48 hrs by sulforhodamine B assay; conditions: PC-3, 48 h, read-out: GI
MDA-MB-435 = assay: Growth inhibition of human MDA-MB-435 cells at 10^-5 M incubated for 48 hrs by sulforhodamine B assay; conditions: MDA-MB-435, 48 h, read-out: GI
U-251 = assay: Growth inhibition of human U251 cells at 10^-5 M incubated for 48 hrs by sulforhodamine B assay; conditions: U-251, 48 h, read-out: GI
SK-MEL-5 = assay: Growth inhibition of human SK-MEL-5 cells at 10^-5 M incubated for 48 hrs by sulforhodamine B assay; conditions: SK-MEL-5, 48 h, read-out: GI
HOP-92 = assay: Growth inhibition of human HOP92 cells at 10^-5 M incubated for 48 hrs by sulforhodamine B assay; conditions: HOP-92, 48 h, read-out: GI
EKVX = assay: Growth inhibition of human EKVX cells at 10^-5 M incubated for 48 hrs by sulforhodamine B assay; conditions: read-out: GI
SF-268 = assay: Growth inhibition of human SF268 cells at 10^-5 M incubated for 48 hrs by sulforhodamine B assay; conditions: SF-268, 48 h, read-out: GI
HCT-116 = assay: Growth inhibition of human HCT116 cells at 10^-5 M incubated for 48 hrs by sulforhodamine B assay; conditions: HCT-116, 48 h, read-out: GI
SK-OV-3 = assay: Growth inhibition of human SKOV3 cells at 10^-5 M incubated for 48 hrs by sulforhodamine B assay; conditions: SK-OV-3, 48 h, read-out: GI
TK-10 = assay: Growth inhibition of human TK10 cells at 10^-5 M incubated for 48 hrs by sulforhodamine B assay; conditions: TK-10, 48 h, read-out: GI
NCI/ADR-RES = assay: Growth inhibition of human NCI/ADR-RES cells at 10^-5 M incubated for 48 hrs by sulforhodamine B assay; conditions: read-out: GI
LOX IMVI = assay: Growth inhibition of human LOXIMVI cells at 10^-5 M incubated for 48 hrs by sulforhodamine B assay; conditions: read-out: GI
NCI-H522 = assay: Growth inhibition of human NCI-H522 cells at 10^-5 M incubated for 48 hrs by sulforhodamine B assay; conditions: NCI-H522, 48 h, read-out: GI
NCI-H322M = assay: Growth inhibition of human NCI-H322M cells at 10^-5 M incubated for 48 hrs by sulforhodamine B assay; conditions: read-out: GI
T47D = assay: Growth inhibition of human T47D cells at 10^-5 M incubated for 48 hrs by sulforhodamine B assay; conditions: read-out: GI
M14 = assay: Growth inhibition of human M14 cells at 10^-5 M incubated for 48 hrs by sulforhodamine B assay; conditions: M14, 48 h, read-out: GI
KM12 = assay: Growth inhibition of human KM12 cells at 10^-5 M incubated for 48 hrs by sulforhodamine B assay; conditions: KM12, 48 h, read-out: GI
HCT-15 = assay: Growth inhibition of human HCT15 cells at 10^-5 M incubated for 48 hrs by sulforhodamine B assay; conditions: HCT-15, 48 h, read-out: GI
Hs-578T = assay: Growth inhibition of human Hs 578T cells at 10^-5 M incubated for 48 hrs by sulforhodamine B assay; conditions: read-out: GI
SNB-75 = assay: Growth inhibition of human SNB75 cells at 10^-5 M incubated for 48 hrs by sulforhodamine B assay; conditions: SNB-75, 48 h, read-out: GI
IGROV-1 = assay: Growth inhibition of human IGROV1 cells at 10^-5 M incubated for 48 hrs by sulforhodamine B assay; conditions: IGROV-1, 48 h, read-out: GI
SN12C = assay: Growth inhibition of human SN12C cells at 10^-5 M incubated for 48 hrs by sulforhodamine B assay; conditions: read-out: GI
A549 = assay: Growth inhibition of human A549/ATCC cells at 10^-5 M incubated for 48 hrs by sulforhodamine B assay; conditions: A549, 48 h, read-out: GI
COLO 205 = assay: Growth inhibition of human COLO205 cells at 10^-5 M incubated for 48 hrs by sulforhodamine B assay; conditions: COLO 205, 48 h, read-out: GI
SK-MEL-2 = assay: Growth inhibition of human SK-MEL-2 cells at 10^-5 M incubated for 48 hrs by sulforhodamine B assay; conditions: SK-MEL-2, 48 h, read-out: GI

Compound | inhibition of growth at 10 µM (SF-539) [%] | inhibition of growth at 10 µM (Malme-3M) [%] | inhibition of growth at 10 µM (OVCAR-4) [%] | inhibition of growth at 10 µM (K562) [%] | inhibition of growth at 10 µM (OVCAR-3) [%] | inhibition of growth at 10 µM (SW-620) [%] | inhibition of growth at 10 µM (SF-295) [%] | inhibition of growth at 10 µM (OVCAR-8) [%] | inhibition of growth at 10 µM (SNB-19) [%] | inhibition of growth at 10 µM (CCRF-CEM) [%] | inhibition of growth at 10 µM (NCI-H460) [%] | inhibition of growth at 10 µM (A498) [%] | inhibition of growth at 10 µM (ACHN) [%] | inhibition of growth at 10 µM (NCI-H23) [%] | inhibition of growth at 10 µM (PC-3) [%] | inhibition of growth at 10 µM (MDA-MB-435) [%] | inhibition of growth at 10 µM (U-251) [%] | inhibition of growth at 10 µM (SK-MEL-5) [%] | inhibition of growth at 10 µM (HOP-92) [%] | inhibition of growth at 10 µM (EKVX) [%] | further results
Oc1ccccc1C1NC(=S)Nc2c1sc1ccc(Cl)cc21 (stereo not drawn) | -0.95 | 10.7 | 7.52 | 8.3 | 4.13 | -8 | -0.95 | 5.15 | 2.48 | -4.86 | 1.28 | 23.4 | 8.93 | 19.4 | 10.2 | -10.2 | -5.09 | 6.32 | 13.4 | 19.7 | inhibition of growth at 10 µM (SF-268): 8.44%; inhibition of growth at 10 µM (HCT-116): 8.97%; inhibition of growth at 10 µM (SK-OV-3): 8.48%; inhibition of growth at 10 µM (TK-10): -8.34%; inhibition of growth at 10 µM (NCI/ADR-RES): 9.4%; inhibition of growth at 10 µM (LOX IMVI): 6.44%; inhibition of growth at 10 µM (NCI-H522): 7.8%; inhibition of growth at 10 µM (NCI-H322M): 5.31%; inhibition of growth at 10 µM (T47D): 24.8%; inhibition of growth at 10 µM (M14): 7.43%; inhibition of growth at 10 µM (KM12): 1.3%; inhibition of growth at 10 µM (HCT-15): -0.05%; inhibition of growth at 10 µM (Hs-578T): 8.15%; inhibition of growth at 10 µM (SNB-75): 21.1%; inhibition of growth at 10 µM (IGROV-1): 13.6%; inhibition of growth at 10 µM (SN12C): 9.77%; inhibition of growth at 10 µM (A549): 5.42%; inhibition of growth at 10 µM (COLO 205): -1.76%; inhibition of growth at 10 µM (SK-MEL-2): 7.35%
S=C1Nc2c(sc3ccc(Cl)cc23)C(c2ccc3ccccc3c2)N1 (stereo not drawn) | 3.23 | 18.4 | 11 | 4 | 3.25 | 3.99 | 3.23 | 8.23 | 7.85 | -3.09 | 6.2 | 14.9 | 12.4 | 15.2 | 14.5 | -2.5 | 7.46 | 5.24 | 27.5 | 14.6 | inhibition of growth at 10 µM (SF-268): 10.3%; inhibition of growth at 10 µM (HCT-116): 9.94%; inhibition of growth at 10 µM (SK-OV-3): 12.2%; inhibition of growth at 10 µM (TK-10): -25.5%; inhibition of growth at 10 µM (NCI/ADR-RES): 4.45%; inhibition of growth at 10 µM (LOX IMVI): 7.47%; inhibition of growth at 10 µM (NCI-H522): 17.7%; inhibition of growth at 10 µM (NCI-H322M): 13.9%; inhibition of growth at 10 µM (T47D): 22.5%; inhibition of growth at 10 µM (M14): 7.85%; inhibition of growth at 10 µM (KM12): -6.6%; inhibition of growth at 10 µM (HCT-15): 2.67%; inhibition of growth at 10 µM (Hs-578T): 8.86%; inhibition of growth at 10 µM (SNB-75): 26%; inhibition of growth at 10 µM (IGROV-1): 16.8%; inhibition of growth at 10 µM (SN12C): 9.45%; inhibition of growth at 10 µM (A549): 7.47%; inhibition of growth at 10 µM (COLO 205): 0.1%; inhibition of growth at 10 µM (SK-MEL-2): 9.98%
